Structures are written as SMILES. ≈ marks a conversion by molar mass, not a printed value.

Test systems include Escherichia coli; Salmonella typhimurium; Cladosporium sp.; Saccharomyces cerevisiae; Aureobasidium pullulans; Candida glabrata 090902; Vibrio alginolyticus; Vibrio fluvialis; Vibrio anguillarum; Vibrio parahaemolyticus; Staphylococcus aureus; Botrytis cinerea; Aerococcus viridans; Fusarium culmorum; Neurospora crassa; Fusarium haematococcum; Ascochyta pisi; Escherichia coli D31; Klebsiella pneumoniae; Bacillus subtilis; Enterobacter cloacae; Escherichia coli D22; Trichoderma viride; Pediococcus acidilactici; Bacillus megaterium; Micrococcus luteus; Alternaria brassicicola.

Common to all, as to assay: ≥ marks a high value that may be exact or a test limit, other limits are often not marked, values filed in µg/mL are converted to µM
Test [1] has as its system Staphylococcus epidermidis.
Test [2] concerns Staphylococcus aureus A170.
Test [3] deals with Bacillus subtilis ATCC 23857.
The subject of test [4] is Pseudomonas aeruginosa ATCC 15692.
For test [5], the system named is Staphylococcus epidermidis 5179-R1.
The test system of test [6] is Corynebacterium glutamicum ATCC 13032.
Test [7] deals with Escherichia coli ATCC 25922.
Test [8] concerns Pseudomonas aeruginosa ATCC 27853.
For test [9], the system named is Escherichia coli MC4100 NR698.
For test [10], the system named is Staphylococcus aureus ATCC 9144.
Test [11] deals with Candida albicans ATCC 10231.
Test [12] has as its system Staphylococcus epidermidis ATCC 35984.
For test [13], the system named is Pseudomonas aeruginosa CGMCC 1.860.
The subject of test [14] is Pseudomonas aeruginosa 0108.
Test [15] concerns Enterobacter cloacae CGMCC 1.57.
The subject of test [16] is Enterococcus faecalis 981.
For test [17], the system named is Klebsiella pneumoniae 08040724.
In test [18] the test system is Enterococcus faecium 091299.
Test [19] relates to Nocardia asteroides 201118.
For test [20], the system named is Psychrobacter faecalis X29.
In test [21] the test system is Staphylococcus aureus ATCC 25923.
Test [22] relates to Pectobacterium carotovorum.

Consider `CC[C@H](C)[C@H](NC(=O)[C@@H]1CCCN1C(=O)[C@H](CC(C)C)NC(=O)[C@@H](N)CC(C)C)C(=O)N[C@H](C(=O)NCC(=O)N[C@@H](CC(N)=O)C(=O)N[C@@H](CC(C)C)C(=O)N[C@@H](CC(C)C)C(=O)N[C@@H](CCCCN)C(=O)N[C@@H](CO)C(=O)N[C@@H](CC(C)C)C(=O)N[C@@H](CC(C)C)C(=O)O)C(C)C` [LLPIVGNLLKSLL], for which the MIC in the test on Escherichia coli is over 71.8 µM; in the test with Salmonella typhimurium, at least 71.8 µM; in test [1], 21.5 µM (≈ 30 µg/mL); in test [2] it was 17.9 µM (≈ 25 µg/mL).
For `CC[C@H](C)[C@H](NC(=O)[C@@H](N)CC(=O)O)C(=O)NCC(=O)N[C@@H](CCCCN)C(=O)N[C@@H](Cc1ccc(O)cc1)C(=O)N[C@@H](CS)C(=O)NCC(=O)N[C@@H](Cc1ccc(O)cc1)C(=O)N[C@@H](C)C(=O)N[C@@H](Cc1cnc[nH]1)C(=O)N[C@@H](C)C(=O)N[C@@H](CC(C)C)C(=O)N[C@@H](CC(N)=O)C(N)=O` [DIGKYCGYAHALN], the MIC (in test [3]; in test [4]; against Cladosporium sp.; in test [5]; in the test on Saccharomyces cerevisiae; in [6]) was at least 100 µM throughout. Moreover, the MIC in [7] is over 100 µM; in test [8], over 100 µM; in test [9], at least 100 µM; against Aureobasidium pullulans, at least 100 µM; in test [10], at least 100 µM; in test [11] it was over 100 µM. This molecule also registered an MIC in [12] of at least 100 µM.
For `CC[C@H](C)[C@H](N)C(=O)N[C@@H](CCCCN)C(=O)N[C@@H](CCCCN)C(=O)N[C@H](C(=O)N[C@@H](Cc1c[nH]c2ccccc12)C(=O)N[C@@H](CO)C(=O)N[C@@H](CCCCN)C(=O)N[C@H](C(=O)N[C@@H](CCCCN)C(=O)N[C@@H](CCCCN)C(=O)N[C@@H](CC(C)C)C(=O)N[C@@H](CC(C)C)C(=O)N[C@@H](CCCCN)C(N)=O)[C@@H](C)CC)[C@@H](C)CC` [IKKIWSKIKKLLK], the minimum inhibitory concentration (MIC) in [13] is 6.25 µM (≈ 10.2 µg/mL); in test [14], 12.5 µM (≈ 20.3 µg/mL).
Regarding `CC[C@H](C)[C@H](NC(=O)CNC(=O)[C@@H](NC(=O)[C@H](C)NC(=O)[C@H](C)NC(=O)[C@H](CCCCN)NC(=O)[C@@H](NC(=O)[C@H](CC(C)C)NC(=O)CNC(=O)[C@@H]1CCCN1C(=O)[C@H](CC(C)C)NC(=O)[C@@H](N)Cc1ccccc1)[C@@H](C)CC)C(C)C)C(=O)NCC(=O)N[C@@H](CO)C(=O)N[C@H](C(=O)N[C@H](C(=O)N[C@@H](Cc1ccccc1)C(=O)N[C@H]1CSSC[C@@H](C(=O)O)NC(=O)[C@H](CCCCN)NC(=O)[C@H](CCCCN)NC(=O)[C@H](CO)NC(=O)[C@H]([C@@H](C)CC)NC(=O)[C@H](CCCCN)NC1=O)[C@@H](C)CC)[C@@H](C)O` [FLPGLIKAAVGIGSTIFCKISKKC], the MIC in test [15] is at least 100 µM; in [16], 3.1 µM (≈ 7.73 µg/mL); in test [7], 100 µM (≈ 249 µg/mL); in the test with Candida glabrata 090902, 6.3 µM (≈ 15.7 µg/mL); in test [17], at least 100 µM; in test [18] it was at least 100 µM. In addition, the MIC came out at 3.1 µM (≈ 7.73 µg/mL) in test [19], 50 µM (≈ 125 µg/mL) in [11], 25 µM (≈ 62.3 µg/mL) in test [20] and 6.3 µM (≈ 15.7 µg/mL) in test [21].
As to `CSCC[C@H](NC(=O)[C@H](CO)NC(=O)[C@H](CC(C)C)NC(=O)[C@H](Cc1cnc[nH]1)NC(=O)[C@H](CO)NC(=O)[C@@H](N)CCC(N)=O)C(=O)N[C@H]1CSSC[C@@H](C(=O)N[C@@H](CCCCN)C(=O)N[C@@H](Cc2ccccc2)C(=O)O)NC(=O)[C@@H]2CSSC[C@@H]3NC(=O)[C@@H]4CSSC[C@H](NC(=O)[C@H](Cc5ccc(O)cc5)NC(=O)[C@H](CCCN=C(N)N)NC1=O)C(=O)N[C@@H](CSSC[C@H](NC(=O)CNC(=O)[C@H](CCCCN)NC(=O)[C@H](CC(N)=O)NC(=O)[C@H](CC(N)=O)NC(=O)[C@H](CCCN=C(N)N)NC3=O)C(=O)NCC(=O)N[C@@H](Cc1ccccc1)C(=O)N2)C(=O)N[C@@H](CC(N)=O)C(=O)N4` [QSHLSMCRYCCNCCRNNKGCGFCCKF], the MIC in the test on Vibrio alginolyticus was at least 50 µM; against Escherichia coli, 50 µM (≈ 150 µg/mL); against Vibrio fluvialis, 25 µM (≈ 75 µg/mL); in the test with Vibrio anguillarum it was at least 50 µM; with Vibrio parahaemolyticus, at least 50 µM; in the test on Staphylococcus aureus, 50 µM (≈ 150 µg/mL).
Consider `CC[C@H](C)[C@H](NC(=O)[C@@H](NC(=O)[C@@H]1CCCN1C(=O)[C@@H](N)C(C)C)[C@@H](C)CC)C(=O)N[C@@H](Cc1ccc(O)cc1)C(=O)N[C@H]1CSSC[C@@H](C(=O)N[C@@H](CCC(N)=O)C(=O)N[C@@H](CCCN=C(N)N)C(=O)N[C@@H](CCSC)C(=O)O)NC(=O)[C@H](CCCCN)NC(=O)CNC(=O)[C@H]([C@@H](C)O)NC(=O)[C@H](CCCN=C(N)N)NC(=O)[C@H](CCCN=C(N)N)NC(=O)[C@H](CC(N)=O)NC1=O` [VPIIYCNRRTGKCQRM], for which the MIC with Botrytis cinerea is 14.1 µM (≈ 27.4 µg/mL); against Aerococcus viridans, 1.73 µM (≈ 3.35 µg/mL); against Fusarium culmorum, 14.1 µM (≈ 27.4 µg/mL); in the test with Neurospora crassa, 14.1 µM (≈ 27.4 µg/mL); in the test with Fusarium haematococcum, 7.07 µM (≈ 13.7 µg/mL); in [22], 28.3 µM (≈ 54.8 µg/mL). Moreover, the minimal inhibitory concentration (MIC) against Ascochyta pisi was 28.3 µM (≈ 54.8 µg/mL); in the test with Escherichia coli D31 it was 0.849 µM (≈ 1.64 µg/mL); in the test with Klebsiella pneumoniae, 3.54 µM (≈ 6.85 µg/mL); in the test on Bacillus subtilis it was 28.3 µM (≈ 54.8 µg/mL); in the test on Enterobacter cloacae it was 7.07 µM (≈ 13.7 µg/mL); in the test on Escherichia coli D22, 0.849 µM (≈ 1.64 µg/mL). The MIC against Trichoderma viride turned out to be 28.3 µM (≈ 54.8 µg/mL); against Pediococcus acidilactici, 28.3 µM (≈ 54.8 µg/mL); with Bacillus megaterium it was 7.07 µM (≈ 13.7 µg/mL); against Micrococcus luteus, 3.54 µM (≈ 6.85 µg/mL); against Alternaria brassicicola it was 7.07 µM (≈ 13.7 µg/mL).

(Values after DBAASP.)
